In US10604555B2, “GIP derivatives and uses thereof” (priority 2018, dated 2020):
*1 amine or outer side, *2 acyl side, *3 side chain or, on linkers, in order; H or OH if unused. Where a SMILES comes first, the peptide text is derived from it. Where no end group is shown, it is not given here. Side-chain parts run from the residue outwards. [ ]: non-standard residue; d: D form. The star is where a group is joined. X1 = O=C(O)CCCCCCCCCCCCCCCCCCC(=O)NCC1CCC(C(=O)*)CC1; C18 diacid = O=C(O)CCCCCCCCCCCCCCCCC(=O)*; γGlu = O=C(O)[C@H](CCC(=O)[*:2])N[*:1]; Nle = CCCC[C@H](N)C(=O)O; AEEA = NCCOCCOCC(=O)O; Aib = CC(C)(N)C(=O)O

Experiments:
Assay type in all cases: physicochemical
[1] = ThT fibrillation assay (physical stability); settings: 250 μM, pH 7.4, 37° C., 45 hours of incubation
Procedure: The Thioflavin T assay was performed as outlined in Schlein (2017), AAPS J, 19(2), 397-408.
This has traditionally been measured by visual inspection of the sample. However, that kind of measurement is very cumbersome and depending on the observer. Therefore, the application of a small molecule indicator probe is much more advantageous. Thioflavin T (ThT) is such a probe and has a distinct fluorescence signature when binding to fibrils [Naiki et al. (1989) Anal. Biochem. 177, 244-249; LeVine (1999) Methods. Enzymol. 309, 274-284].
The time course for fibril formation can be described by a sigmoidal curve with the following expression [Nielsen et al. (2001) Biochemistry 40, 6036-6046]:
Here, F is the ThT fluorescence at the time t. The constant t0 is the time needed to reach 50% of maximum fluorescence. The two important parameters describing fibril formation are the lag-time calculated by t0−2τ and the apparent rate constant kapp 1/τ.
Few of those intermediates nucleate to form a template onto which further intermediates may assembly and the fibrillation proceeds. The lag-time corresponds to the interval in which the critical mass of nucleus is built up and the apparent rate constant is the rate with which the fibril itself is formed.
Samples are prepared freshly before each assay. The drug substance was solved with 250 μM of the GIP derivative in 8 mM phosphate, 14 mg/mL propylene glycol, 58 mM phenol, pH 7.4. The pH of the sample was adjusted to the desired value using appropriate amounts of concentrated NaOH and HCl. Thioflavin T was added to the samples from a stock solution in H2O to a final concentration of 1 μM.
Sample aliquots of 200 μl were placed in each well of a 96 well microtiter plate (Packard OptiPlate™-96, white polystyrene). Four replica of each sample (corresponding to one test condition) was placed in one column of wells. The plate was sealed with Scotch Pad (Qiagen).
Incubation, shaking and measurement of the ThT fluorescence emission were done in a Fluoroskan Ascent FL fluorescence platereader (Thermo Labsystems). […] Fluorescence measurement was done using excitation through a 444 nm filter and measurement of emission through a 485 nm filter.
Each run was initiated by incubating the plate at the assay temperature for 10 min. The plate was measured every 20 minutes for a desired period of time. Between each measurement, the plate was shaken and heated as described.
After completion of the ThT assay the replica of each sample was pooled and centrifuged at 20000 rpm for 30 minutes at 18° C. The supernatant was filtered through a 0.22 μm filter and an aliquot was transferred to a HPLC vial. The concentration of the filtered sample relative to the initial sample (in percentage) was reported as the recovery.
The measurement points were saved in Microsoft Excel format for further processing and curve drawing and fitting was performed using GraphPad Prism. […] The data points were a mean of the four replica and shown with standard deviation error bars. Only data obtained in the same experiment (i.e. samples on the same plate) were presented in the same graph ensuring a relative measure of fibrillation between experiments.
The data set may be fitted to Eq. (1).

[2] = Chemical stability: purity loss by LCMS; settings: 37° C., 4 weeks, 250 μM, pH 7.4
Procedure: The aim of this study is to determine the chemical stability of GIP derivative compositions. As a measure of stability of the GIP derivative composition, the formation of high molecular weight peptide formation (% HMWP) as a function of time was analysed by size-exclusion chromatography (SEC-MS). Further, the purity loss of the GIP derivative compositions was measured by LCMS. Samples for chemical stability assays were freshly prepared before each assay. […] The pH of the sample was adjusted to the desired value using appropriate amounts of concentrated NaOH and HCl. […] The column oven was kept at 55° C. […] The solvents were pumped from a binary solvent manager system and mixed on the high pressure side in a mixer with a volume of 50 μl. The gradient and flow can be seen in table 4: [table] A Flow-through-needle auto sampler at 8° C. was used to inject 1 μl of each sample. The effluent passed through a tunable UV detector (TUV) tuned to 215 nm. The outlet from the UV detector passed to the electrospray source of the mass spectrometer. The capillary was held at 3 kV and dry nitrogen gas was purged at a flow of 750 I/h and a temperature of 250° C. The source block was kept at 120° C. and the large bore cone was flushed with nitrogen at 50 I/h with standard electrode potentials on the rest of the instrument. The MS was operated in high resolution mode with a nominal resolution of 35000. The ToF analyser was operated in ADC mode with an m/z window from 100-2000.

[3] = Chemical stability: HMWP formation by SEC-MS; settings: 37° C., 4 weeks, 250 μM, pH 7.4
Procedure: The aim of this study is to determine the chemical stability of GIP derivative compositions. As a measure of stability of the GIP derivative composition, the formation of high molecular weight peptide formation (% HMWP) as a function of time was analysed by size-exclusion chromatography (SEC-MS). Further, the purity loss of the GIP derivative compositions was measured by LCMS. Samples for chemical stability assays were freshly prepared before each assay. […] The pH of the sample was adjusted to the desired value using appropriate amounts of concentrated NaOH and HCl. […] Formation of covalent oligomers (HMWPs) was analysed and identified by a SEC-MS method. […] The LC system was coupled to both a TUV detector operated at 215 nm, 10 Hz and a high resolution QToF mass spectrometer from Waters (Synapt G2S) operated in positive ion mode and m/z range of 100 to 4000 with normal resolution setting. Lock mass correction against Leu-Enkephalin was done every 31 sec. Spectra were processed in MassLynx version 4.1 and MaxEnt deconvoluted.

[4] = Dynamic Light Scattering Stability Index (DLS-SI); settings: 250 μM, pH 7.4, 4 weeks at 25° C.

Row | Compound | ThT Assay Lag time [1] [h] | Purity loss (%/month) [2] [%/month] | HMWP formation (%/month) [3] [%/month] | DLS-SI Dimensionless [4] | DLS-SI precipitates [4]
1 | CCCC[C@H](NC(=O)[C@H](C)NC(=O)[C@@H](NC(=O)[C@H](CO)NC(=O)[C@H](Cc1ccc(O)cc1)NC(=O)[C@H](CC(=O)O)NC(=O)[C@H](CO)NC(=O)[C@@H](NC(=O)[C@H](Cc1ccccc1)NC(=O)[C@@H](NC(=O)CNC(=O)[C@H](CCC(=O)O)NC(=O)C(C)(C)NC(=O)[C@@H](N)Cc1ccc(O)cc1)[C@@H](C)O)[C@@H](C)CC)[C@@H](C)CC)C(=O)N[C@@H](CC(=O)O)C(=O)N[C@@H](CCCCN)C(=O)N[C@H](C(=O)N[C@@H](CCCNC(=N)N)C(=O)N[C@@H](CCC(N)=O)C(=O)N[C@@H](CCC(=O)O)C(=O)N[C@@H](CC(=O)O)C(=O)N[C@@H](Cc1ccccc1)C(=O)N[C@H](C(=O)N[C@@H](CCCCNC(=O)CC[C@H](NC(=O)CC[C@H](NC(=O)CC[C@H](NC(=O)C1CCC(CNC(=O)CCCCCCCCCCCCCCCCCCC(=O)O)CC1)C(=O)O)C(=O)O)C(=O)O)C(=O)N[C@@H](Cc1c[nH]c2ccccc12)C(=O)N[C@@H](CC(C)C)C(=O)N[C@@H](CC(C)C)C(=O)N[C@@H](C)C(=O)N[C@@H](CCC(N)=O)C(=O)N[C@@H](CCCCN)C(=O)NCC(=O)O)C(C)C)[C@@H](C)CC (stereo partly drawn) [Compound 10, N{Epsilon-24}-[(4S)-4-carboxy-4-[[(4S)-4-carboxy-4-[[(4S)-4-carboxy-4-[[4-[(19-carboxynonadecanoylamino)methyl]cyclohexanecarbonyl]amino]butanoyl]amino]-butanoyl]amino]butanoyl]-[Aib2,Nle14,Arg18,Glu20,Lys24]-hGIP(1-31)] (H-Y[Aib]EGTFISDYSIA[Nle]DKIRQEDFVK([γGlu-γGlu-γGlu-X1])WLLAQKG-OH; N-terminus and C-terminus assumed) | >45 | 4.80 | 1.50 | 1.7 | No
2 | CCCC[C@H](NC(=O)[C@H](C)NC(=O)[C@@H](NC(=O)[C@H](CO)NC(=O)[C@H](Cc1ccc(O)cc1)NC(=O)[C@H](CC(=O)O)NC(=O)[C@H](CO)NC(=O)[C@@H](NC(=O)[C@H](Cc1ccccc1)NC(=O)[C@@H](NC(=O)CNC(=O)[C@H](CCC(=O)O)NC(=O)C(C)(C)NC(=O)[C@@H](Cc1ccc(O)cc1)NC(C)=O)[C@@H](C)O)[C@@H](C)CC)[C@@H](C)CC)C(=O)N[C@@H](CC(=O)O)C(=O)N[C@@H](CCCCN)C(=O)N[C@H](C(=O)N[C@@H](Cc1c[nH]cn1)C(=O)N[C@@H](CCC(N)=O)C(=O)N[C@@H](CCC(N)=O)C(=O)N[C@@H](CC(=O)O)C(=O)N[C@@H](Cc1ccccc1)C(=O)N[C@H](C(=O)N[C@@H](CCCCNC(=O)CC[C@H](NC(=O)CC[C@H](NC(=O)CC[C@H](NC(=O)C1CCC(CNC(=O)CCCCCCCCCCCCCCCCCCC(=O)O)CC1)C(=O)O)C(=O)O)C(=O)O)C(=O)N[C@@H](Cc1c[nH]c2ccccc12)C(=O)N[C@@H](CC(C)C)C(=O)N[C@@H](CC(C)C)C(=O)N[C@@H](C)C(=O)N[C@@H](CCC(N)=O)C(=O)N[C@@H](CCCCN)C(=O)N1CCC[C@H]1C(N)=O)C(C)C)[C@@H](C)CC (stereo partly drawn) [Compound 32, N{1}-acetyl,N{Epsilon-24}-[(4S)-4-carboxy-4-[[(4S)-4-carboxy-4-[[(4S)-4-carboxy-4-[[4-[(19-carboxynonadecanoylamino)methyl]cyclohexanecarbonyl]amino]butanoyl]-amino]butanoyl]amino]butanoyl]-[D-Tyr1,Aib2,Nle14,Lys24,Pro31]-hGIP(1-31) amide] (Ac-[dY][Aib]EGTFISDYSIA[Nle]DKIHQQDFVK([γGlu-γGlu-γGlu-X1])WLLAQKP-NH2) | >45 | 2.80 | 0.66 | 1.7 | No
3 | Y[Aib]EGTFISDYSIALDKIHQQDFVK([AEEA-AEEA-γGlu-C18 diacid])WLLAQKGKKNDWKHNITQ [Compound 45, N{Epsilon-24}-[2-[2-[2-[[2-[2-[2-[[(4S)-4-carboxy-4-(17-carboxyheptadecanoylamino)butanoyl]amino]ethoxy]ethoxy]acetyl]amino]ethoxy]ethoxy]acetyl]-[Aib2,Leu14,Lys24]-hGIP] | >45 | 47.22 | 8.17 | 6.7 | No
